In patent publication US20140018347A1, “BENZOXAZEPINES AS INHIBITORS OF mTOR AND METHODS OF THEIR USE AND MANUFACTURE” (Exelixis, Inc., priority 2010, published 2014):

What was measured:
[1] = target: mTORC1 (Homo sapiens, UniProt P42345); test: mTOR/GbL/Raptor (mTORC1) ELISA Assay; format: biochemical; conditions: phosphorylation of 4E-BP1; 0.2 nM mTORC1, 10 μM ATP
Description: The measurement of mTORC1 enzyme activity was performed in an ELISA assay format following the phosphorylation of 4E-BP1 protein. All experiments were performed in the 384-well format. Generally, 0.5 μL DMSO containing varying concentrations of the test compound was mixed with 15 μL enzyme solution. Kinase reactions were initiated with the addition of 15 μL of substrates-containing solution. The assay conditions were as follows; 0.2 nM mTORC1, 10 μM ATP and 50 nM NHis-tagged 4E-BP1 in 20 mM Hepes, pH 7.2, 1 mM DTT, 50 mM NaCl, 10 mM MnCl2, 0.02 mg/mL BSA, 0.01% CHAPS, 50 mM β-glycerophosphate. Following an incubation of 120 minutes at ambient temperature, 20 μL of the reaction volume was transferred to a Ni-Chelate-coated 384-well plate. The binding step of the 4E-BP1 protein proceeded for 60 minutes, followed by washing 4 times each with 50 μL of Tris-buffered saline solution (TBS). Anti-phospho-4E-BP1 rabbit-IgG (20 μL, 1:5000) in 5% BSA-TBST (0.2% Tween-20 in TBS) was added and further incubated for 60 minutes. Incubation with a secondary HRP-tagged anti-IgG was similarly performed after washing off the primary antibody (4 washes of 50 μL). Following the final wash step with TBST, 20 μL of SuperSignal ELISA Femto (Pierce Biotechnology) was added and the luminescence measured using an EnVision plate reader.

[2] = target: PI3Kalpha (Homo sapiens, UniProt P42336); test: PI3K Biochemical Assays (PI3K-alpha assay); conditions: ATP consumption, luciferase-luciferin; 1 μM ATP, 10 μM PIP2
PI3Kalpha, sequence (P42336 whole entry): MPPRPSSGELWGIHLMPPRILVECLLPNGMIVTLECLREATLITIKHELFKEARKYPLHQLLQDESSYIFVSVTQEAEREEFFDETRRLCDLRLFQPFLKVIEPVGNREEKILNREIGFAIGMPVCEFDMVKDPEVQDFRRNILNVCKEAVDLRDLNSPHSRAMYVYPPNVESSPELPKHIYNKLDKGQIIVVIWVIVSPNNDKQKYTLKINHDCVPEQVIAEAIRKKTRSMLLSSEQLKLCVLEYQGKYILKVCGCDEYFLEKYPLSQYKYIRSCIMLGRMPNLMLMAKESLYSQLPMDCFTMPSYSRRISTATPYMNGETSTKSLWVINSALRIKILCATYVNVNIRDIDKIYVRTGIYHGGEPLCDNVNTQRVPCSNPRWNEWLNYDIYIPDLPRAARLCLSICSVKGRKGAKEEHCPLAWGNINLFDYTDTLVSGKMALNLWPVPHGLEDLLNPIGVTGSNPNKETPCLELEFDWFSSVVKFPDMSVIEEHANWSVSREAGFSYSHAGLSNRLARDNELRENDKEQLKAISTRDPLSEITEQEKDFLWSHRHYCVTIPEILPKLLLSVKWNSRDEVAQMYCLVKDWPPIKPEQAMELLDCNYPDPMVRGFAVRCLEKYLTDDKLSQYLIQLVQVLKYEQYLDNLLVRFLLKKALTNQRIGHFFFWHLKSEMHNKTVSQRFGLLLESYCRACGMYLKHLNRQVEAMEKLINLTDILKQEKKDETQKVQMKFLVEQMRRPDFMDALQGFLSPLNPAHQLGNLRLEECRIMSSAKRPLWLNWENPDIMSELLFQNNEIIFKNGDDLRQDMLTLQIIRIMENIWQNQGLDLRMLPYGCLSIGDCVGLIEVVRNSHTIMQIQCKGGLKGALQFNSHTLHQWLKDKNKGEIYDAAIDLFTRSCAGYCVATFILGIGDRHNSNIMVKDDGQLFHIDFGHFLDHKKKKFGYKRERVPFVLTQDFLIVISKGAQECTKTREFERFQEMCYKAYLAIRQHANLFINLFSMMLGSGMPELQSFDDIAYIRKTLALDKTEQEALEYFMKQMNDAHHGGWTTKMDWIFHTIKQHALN
PI3Kalpha, sequence (P27986 whole entry partner): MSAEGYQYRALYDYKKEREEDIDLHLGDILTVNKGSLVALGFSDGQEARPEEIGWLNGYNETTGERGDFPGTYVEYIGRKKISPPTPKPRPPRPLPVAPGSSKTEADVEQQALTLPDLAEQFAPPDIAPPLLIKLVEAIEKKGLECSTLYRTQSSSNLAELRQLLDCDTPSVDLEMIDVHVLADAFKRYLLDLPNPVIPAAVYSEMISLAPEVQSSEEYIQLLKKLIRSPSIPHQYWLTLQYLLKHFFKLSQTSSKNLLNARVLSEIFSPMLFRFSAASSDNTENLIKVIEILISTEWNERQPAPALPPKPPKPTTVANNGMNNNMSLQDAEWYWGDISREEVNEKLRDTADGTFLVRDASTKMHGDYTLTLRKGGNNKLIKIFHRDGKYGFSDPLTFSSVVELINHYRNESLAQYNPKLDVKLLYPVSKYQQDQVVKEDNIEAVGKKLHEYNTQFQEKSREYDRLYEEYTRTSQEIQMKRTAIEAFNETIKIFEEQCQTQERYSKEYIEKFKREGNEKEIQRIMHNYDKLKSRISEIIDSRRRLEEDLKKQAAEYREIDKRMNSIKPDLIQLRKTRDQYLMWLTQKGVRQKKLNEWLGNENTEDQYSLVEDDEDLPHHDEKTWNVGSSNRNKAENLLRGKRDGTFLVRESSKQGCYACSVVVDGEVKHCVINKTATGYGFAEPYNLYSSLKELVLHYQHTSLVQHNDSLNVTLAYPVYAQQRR
Description: PI3Kn activity was measured as the percent of ATP consumed following the kinase reaction using luciferase-luciferin-coupled chemiluminescence. Reactions were conducted in 384-well white, medium binding microtiter plates (Greiner). Kinase reactions were initiated by combining test compounds, ATP, substrate (PIP2), and kinase in a 20 μL volume in a buffer solution. The standard PI3Kalpha assay buffer was composed 50 mM Tris, pH 7.5, 1 mM EGTA, 10 mM MgCl2, 1 mM DTT and 0.03% CHAPS. The standard assay concentrations for enzyme, ATP, and substrate were 3 nM, 1 μM, and 10 μM, respectively. The reaction mixture was incubated at ambient temperature for approximately 2 h. Following the kinase reaction, a 10 μL aliquot of luciferase-luciferin mix (Promega Kinase-Glo) was added and the chemiluminescence signal measured using a Victor2 or EnVision (Perkin Elmer). Total ATP consumption was limited to 40-60% and IC50 values of control compounds correlate well with literature references. Substituting PI3Kα with PI3Krβ, PI3Kγ, or PI3Kδ, the inhibitory activity of the compounds for the other isoforms of PI3K were measured. For the PI3Kβ and PI3Kδ assays, enzyme concentrations were 10 nM and 4 nM, respectively. For the PI3Kγ assay, enzyme concentration was 40 nM, the incubation time was 1 h, and the concentration of MgCl2 in the assay buffer was 5 mM.

Row | Structure (SMILES) | IC50 [1] | IC50 [2]
1 | Cc1nc(CN(C)C)nc(N2CCOc3ccc(-c4cnc5sc(N)nc5c4)cc3C2)c1F [Compound 66, 6-(4-{2-[(dimethylamino)methyl]-5-fluoro-6-methylpyrimidin-4-yl)-1,3,4,5-tetrahydro-1,4-benzoxazepin-7-yl)[1,3]thiazolo[5,4-b]pyridin-2-amine] | 0.5 to 2.5 µM | 0.1 to 0.5 µM
2 | CC#Cc1c(C)nc(N)nc1N1CCOc2ccc(-c3cnc4sc(N)nc4c3)cc2C1 [Compound 77, 6-[4-(2-amino-6-methyl-5-prop-1-yn-1-ylpyrimidin-4-yl)-2,3,4,5-tetrahydro-1,4-benzoxazepin-7-yl][1,3]thiazolo[5,4-b]pyridin-2-amine] | ≤ 0.1 µM | ≤ 0.1 µM
3 | Cc1nc(N)nc(N2CCOc3c(F)cc(-c4cnc5sc(N)nc5c4)cc3C2)c1C(C)C [Compound 101, 6-{4-[2-amino-6-methyl-5-(1-methylethyl)pyrimidin-4-yl]-9-fluoro-2,3,4,5-tetrahydro-1,4-benzoxazepin-7-yl}[1,3]thiazolo[5,4-b]pyridin-2-amine] | ≤ 0.1 µM | ≤ 0.1 µM
4 | Cc1nc(CNCCF)nc(N2CCOc3ccc(-c4cnc5sc(N)nc5c4)cc3C2)c1C(C)C [Compound 82, 6-{4-[2-{[(2-fluoroethyl)amino]methyl}-6-methyl-5-(1-methylethyl)pyrimidin-4-yl]-2,3,4,5-tetrahydro-1,4-benzoxazepin-7-yl}[1,3]thiazolo[5,4-b]pyridin-2-amine] | ≤ 0.1 µM | ≤ 0.1 µM
5 | N#Cc1cnc(N)cc1N1CCOc2ccc(-c3cnc4sc(N)nc4c3)cc2C1 [Compound 58, 6-amino-4-[7-(2-amino[1,3]thiazolo[5,4-b]pyridin-6-yl)-2,3-dihydro-1,4-benzoxazepin-4(5H)-yl]pyridine-3-carbonitrile] | ≤ 0.1 µM | ≤ 0.1 µM
6 | Nc1cc(Cl)nc(N2CCOc3ccc(-c4cnc5sc(N)nc5c4)cc3C2)n1 [Compound 50, 6-[4-(4-amino-6-chloropyrimidin-2-yl)-2,3,4,5-tetrahydro-1,4-benzoxazepin-7-yl][1,3]thiazolo[5,4-b]pyridin-2-amine] | 0.1 to 0.5 µM | 0.1 to 0.5 µM
7 | CC1(C)Cc2nc(N3CCOc4ccc(-c5cnc6sc(N)nc6c5)cc4C3)sc2C(=O)N1 [Compound 85, 2-[7-(2-amino[1,3]thiazolo[5,4-b]pyridin-6-yl)-23-dihydro-1,4-benzoxazepin-4(5H)-yl]-6,6-dimethyl-6,7-dihydro[1,3]thiazolo[5,4-c]pyridin-4(5H)-one] | ≤ 0.1 µM | 0.1 to 0.5 µM
8 | Cc1nc(CN(C)C)nc(N2CCOc3ccc(-c4cnc5sc(N)nc5c4)cc3C2)c1C(C)C [Compound 55, 6-(4-{2-[(dimethylamino)methyl]-6-methyl-5-(1-methylethyl)pyrimidin-4-yl}-2,3,4,5-tetrahydro-1,4-benzoxazepin-7-yl)[1,3]thiazolo[5,4-b]pyridin-2-amine] | ≤ 0.1 µM | ≤ 0.1 µM
9 | CC1CC(C)(C)Cc2c1nc(N)nc2N1CCOc2ccc(-c3cnc4sc(N)nc4c3)cc2C1 (stereo not shown) [Compound 57, 4-[7-(2-amino[1,3]thiazolo[5,4-b]pyridin-6-yl)-2,3-dihydro-1,4-benzoxazepin-4(5H)-yl]-6,6,8-trimethyl-5,6,7,8-tetrahydroquinazolin-2-amine] | ≤ 0.1 µM | ≤ 0.1 µM
10 | Cc1nc(CN(C)C)nc(N2CCOc3ccc(-c4cnc5sc(N)nc5c4)cc3C2)c1CC(C)C [Compound 36, 6-(4-{2-[(dimethylamino)methyl]-6-methyl-5-(2-methylpropyl)pyrimidin-4-yl}-2,3,4,5-tetrahydro-1,4-benzoxazepin-7-yl)[1,3]thiazolo[5,4-b]pyridin-2-amine] | ≤ 0.1 µM | 0.1 to 0.5 µM
11 | Cc1nc(N)nc(N2CCOc3ccc(-c4cnc5sc(N)nc5c4)cc3C2)c1C=O [Compound 42, 2-amino-4-[7-(2-amino[1,3]thiazolo[5,4-b]pyridin-6-yl)-2,3-dihydro-1,4-bcnzoxazepin-4(5H)-yl]-6-methylpyrimidine-5-carbaldehyde] | 0.1 to 0.5 µM | ≤ 0.1 µM
12 | CCc1nc(N)nc(N2CCOc3ccc(-c4cnc5sc(N)nc5c4)cc3C2)c1C(C)C [Compound 29, 6-{4-[2-amino-6-ethyl-5-(1-methylethyl)pyrimidin-4-yl]-2,3,4,5-tetrahydro-1,4-benzoxazepin-7-yl}[1,3]thiazolo[5,4-b]pyridin-2-amine] | ≤ 0.1 µM | ≤ 0.1 µM
13 | C=CCc1c(C)nc(CN(C)C)nc1N1CCOc2ccc(-c3cnc4sc(N)nc4c3)cc2C1 [Compound 70, 6-(4-{2-[(dimethylamino)methyl]-6-methyl-5-prop-2-en-1-ylpyrimidin-4-yl}-2,3,4,5-tetrahydro-1,4-benzoxazepin-7-yl)[1,3]thiazolo[5,4-b]pyridin-2-amine] | ≤ 0.1 µM | ≤ 0.1 µM
14 | Cc1cnc(N)nc1N1CCOc2ccc(-c3cnc4sc(N)nc4c3)cc2C1 [Compound 35, 6-[4-(2-amino-5-methylpyrimidin-4-yl)-2,3,4,5-tetrahydro-1,4-benzoxazepin-7-yl][1,3]thiazolo[5,4-b]pyridin-2-amine] | 0.1 to 0.5 µM | ≤ 0.1 µM
15 | CCCc1c(C)nc(CN(C)C)nc1N1CCOc2ccc(-c3cnc4sc(N)nc4c3)cc2C1 [Compound 69, 6-(4-{2-[(dimethylamino)methyl]-6-methyl-5-propylpyrimidin-4-yl}-1,3,4,5-tetrahydro-1,4-benzoxazepin-7-yl)[1,3]thiazolo[5,4-b]pyridin-2-amine] | ≤ 0.1 µM | ≤ 0.1 µM
16 | Cc1c(N)nc(N)nc1N1CCOc2ccc(-c3cnc4sc(N)nc4c3)cc2C1 [Compound 73, 6-[7-(2-amino[1,3]thiazolo[5,4-b]pyridin-6-yl)-2,3-dihydro-1,4-benzoxazepin-4(5H)-yl]-5-methylpyrimidine-2,4-diamine] | 0.1 to 0.5 µM | ≤ 0.1 µM
17 | CCc1c(C)nc(N)nc1N1CCOc2ccc(-c3cnc4sc(N)nc4c3)cc2C1 [Compound 6, 6-[4-(2-amino-5-ethyl-6-methylpyrimidin-4-yl)-2,3,4,5-tetrahydro-1,4-benzoxazepin-7-yl][1,3]thiazolo[5,4-b]pyridin-2-amine] | ≤ 0.1 µM | ≤ 0.1 µM
18 | CC(C)(C)c1cnc(N)nc1N1CCOc2ccc(-c3cnc4sc(N)nc4c3)cc2C1 [Compound 47, 6-{4-[2-amino-5-(1,1-dimethylethyl)pyrimidin-4-yl]-2,3,4,5-tetrahydro-1,4-benzoxazepin-7-yl}[1,3]thiazolo[5,4-b]pyridin-2-amine] | 0.5 to 2.5 µM | 0.5 to 2.5 µM
19 | C#Cc1c(C)nc(N)nc1N1CCOc2ccc(-c3cnc4sc(N)nc4c3)cc2C1 [Compound 74, 6-[4-(2-amino-5-ethynyl-6-methylpyrimidin-4-yl)-2,3,4,5-tetrahydro-1,4-benzoxazepin-7-yl][1,3]thiazolo[5,4-b]pyridin-2-amine] | ≤ 0.1 µM | ≤ 0.1 µM
20 | Cc1nc(CN(C)C)nc(N2CCOc3ccc(-c4cnc5sc(N)nc5c4)cc3C2)c1-c1ccccc1 [Compound 37, 6-(4-{2-[(dimethylamino)methyl]-6-methyl-5-phenylpyrimidin-4-yl}-2,3,4,5-tetrahydro-1,4-benzoxazepin-7-yl)[1,3]thiazolo[5,4-b]pyridin-2-amine] | ≤ 0.1 µM | ≤ 0.1 µM
21 | Nc1nc2cc(-c3ccc4c(c3)CN(c3ccnc([N+](=O)[O-])c3)CCO4)cnc2s1 [Compound 93, 6-[4-(2-nitropyridin-4-yl)-2,3,4,5-tetrahydro-1,4-benzoxazepin-7-yl][1,3]thiazolo[5,4-b]pyridin-2-amine] | 0.1 to 0.5 µM | 0.5 to 2.5 µM
22 | Cc1nc(CN(C)C)nc(N2CCOc3ccc(-c4cnc5sc(N)nc5c4)cc3C2)c1Br [Compound 64, 6-(4-{5-bromo-2-[(dimethylamino)methyl]-6-methylpyrimidin-4-yl}-2,3,4,5-tetrahydro-1,4-benzoxazepin-7-yl)[1,3]thiazolo[5,4-b]pyridin-2-amine] | 0.5 to 2.5 µM | ≤ 0.1 µM
23 | Nc1nc2cc(-c3ccc4c(c3)CN(c3ncc(C(F)(F)F)c(N)n3)CCO4)cnc2s1 [Compound 81, 6-{4-[4-amino-5-(trifluoromethyl)pyrimidin-2-yl]-2,3,4,5-tetrahydro-1,4-benzoxazepin-7-yl}[1,3]thiazolo[5,4-b]pyridin-2-amine] | 0.1 to 0.5 µM | 0.1 to 0.5 µM
